Reference: ChEMBL document CHEMBL5058564, “EUbOPEN Chemogenomics Library 2 (Incucyte)” (2022)

Legend:
Format in all cases: toxicity, cell-based
Fibroblast = experiment: Incucyte cell viability with human fibroblast; conditions: 10 µM, compound concentration 10 uM
U2OS = experiment: Incucyte cell viability with U2OS; conditions: human, 10 µM, compound concentration 10 uM
HEK-293T = experiment: Incucyte cell viability with HEK293T; conditions: human, 10 µM, compound concentration 10 uM
[1] = 0 h, replicate number 1, timepoint 0 hours
[2] = 0 h, replicate number 2, timepoint 0 hours
[3] = 6 h, replicate number 1, timepoint 6 hours
[4] = 6 h, replicate number 2, timepoint 6 hours
[5] = 12 h, replicate number 1, timepoint 12 hours
[6] = 12 h, replicate number 2, timepoint 12 hours
[7] = 18 h, replicate number 1, timepoint 18 hours
[8] = 18 h, replicate number 2, timepoint 18 hours
[9] = 24 h, replicate number 1, timepoint 24 hours
[10] = 24 h, replicate number 2, timepoint 24 hours
Also: unitless GR value; below 1 slowed growth and below 0 cell loss.

S=C(NCCCc1c[nH]cn1)NCCCN(Cc1ccc(Cl)c(Cl)c1)c1ccc(Br)cn1
Growth Rate (Fibroblast; [1]): 0.28
Growth Rate (Fibroblast; [2]): 0.91
Growth Rate (Fibroblast; [3]): -0.23
Growth Rate (Fibroblast; [4]): 0.5
Growth Rate (Fibroblast; [5]): 0.17
Growth Rate (Fibroblast; [6]): 0.18
Growth Rate (Fibroblast; [7]): -0.18
Growth Rate (Fibroblast; [8]): 0.55
Growth Rate (Fibroblast; [9]): -0.16
Growth Rate (Fibroblast; [10]): 0.74
Growth Rate (U2OS; [2]): -1
Growth Rate (U2OS; [6]): 0.84
Growth Rate (U2OS; [7]): 0.88
Growth Rate (U2OS; [8]): 0.68
Growth Rate (U2OS; [9]): 0.83
Growth Rate (U2OS; [10]): 0.67
Growth Rate (HEK-293T; [3]): 0.16
Growth Rate (HEK-293T; [4]): -0.21
Growth Rate (HEK-293T; [5]): 0.08
Growth Rate (HEK-293T; [7]): 0.15
Growth Rate (HEK-293T; [8]): 0.19
Growth Rate (HEK-293T; [9]): 0.15
Growth Rate (HEK-293T; [10]): 0.2

COc1ccc2cc(S(=O)(=O)N[C@H](CC(=O)N[C@H](Cc3ccc(CN4[C@H](C)CCC[C@@H]4C)cc3)C(=O)N(C)C(C)C)c3ccc4c(c3)OCO4)ccc2c1.Cl
Growth Rate (Fibroblast; [2]): -0.08
Growth Rate (Fibroblast; [3]): -0.65
Growth Rate (Fibroblast; [4]): -0.35
Growth Rate (Fibroblast; [5]): -0.6
Growth Rate (Fibroblast; [6]): -0.1
Growth Rate (Fibroblast; [7]): -0.65
Growth Rate (Fibroblast; [8]): -0.15
Growth Rate (Fibroblast; [9]): -0.57
Growth Rate (Fibroblast; [10]): -0.02
Growth Rate (U2OS; [2]): -0.35
Growth Rate (U2OS; [3]): 0.84
Growth Rate (U2OS; [5]): 0.63
Growth Rate (U2OS; [6]): 0.61
Growth Rate (U2OS; [7]): 0.67
Growth Rate (U2OS; [8]): 0.57
Growth Rate (U2OS; [9]): 0.69
Growth Rate (U2OS; [10]): 0.53
Growth Rate (HEK-293T; [3]): -0.08
Growth Rate (HEK-293T; [5]): 0.01
Growth Rate (HEK-293T; [6]): 0.35
Growth Rate (HEK-293T; [7]): 0.02
Growth Rate (HEK-293T; [8]): 0.41
Growth Rate (HEK-293T; [9]): 0.01
Growth Rate (HEK-293T; [10]): 0.42

COc1ccc(C(=O)N2CCN(C(=O)/C=C/c3ccc(Br)cc3)CC2)cc1
Growth Rate (Fibroblast; [2]): 0.76
Growth Rate (Fibroblast; [3]): -0.51
Growth Rate (Fibroblast; [5]): 0.15
Growth Rate (Fibroblast; [6]): 0.95
Growth Rate (Fibroblast; [7]): 0.44
Growth Rate (Fibroblast; [8]): 0.79
Growth Rate (Fibroblast; [9]): 0.08
Growth Rate (U2OS; [3]): -0.38
Growth Rate (U2OS; [4]): 0.66
Growth Rate (U2OS; [5]): 0.8
Growth Rate (U2OS; [6]): 0.72
Growth Rate (U2OS; [7]): 0.64
Growth Rate (U2OS; [8]): 0.63
Growth Rate (U2OS; [9]): 0.88
Growth Rate (U2OS; [10]): 0.73
Growth Rate (HEK-293T; [3]): 0.09

CC(C)n1cnc2c(Nc3cccc(Cl)c3)nc(N[C@H]3CCCC[C@@H]3N)nc21
Growth Rate (Fibroblast; [3]): 0.31
Growth Rate (Fibroblast; [4]): -0.31
Growth Rate (Fibroblast; [5]): 0.73
Growth Rate (Fibroblast; [6]): 0.36
Growth Rate (Fibroblast; [7]): 0.33
Growth Rate (Fibroblast; [9]): 0.41
Growth Rate (U2OS; [3]): -0.04
Growth Rate (U2OS; [4]): 0.4
Growth Rate (U2OS; [5]): -0.12
Growth Rate (U2OS; [6]): 0.04
Growth Rate (U2OS; [7]): 0.03
Growth Rate (U2OS; [8]): -0.02
Growth Rate (U2OS; [9]): 0.06
Growth Rate (U2OS; [10]): 0.05
Growth Rate (HEK-293T; [3]): -0.84
Growth Rate (HEK-293T; [4]): -0.89
Growth Rate (HEK-293T; [5]): -0.51
Growth Rate (HEK-293T; [6]): -0.69
Growth Rate (HEK-293T; [7]): -0.35
Growth Rate (HEK-293T; [8]): -0.48
Growth Rate (HEK-293T; [9]): -0.25
Growth Rate (HEK-293T; [10]): -0.39

CN[C@@H]1Cc2cccc3[nH]c(=O)n(c23)C1.O=C(O)/C=C\C(=O)O
Growth Rate (Fibroblast; [3]): -0.17
Growth Rate (Fibroblast; [4]): 0.8
Growth Rate (Fibroblast; [5]): 0.68
Growth Rate (Fibroblast; [7]): 0.81
Growth Rate (Fibroblast; [9]): 0.5
Growth Rate (U2OS; [1]): 0.11
Growth Rate (U2OS; [2]): -1
Growth Rate (U2OS; [7]): 0.71
Growth Rate (U2OS; [8]): 0.85
Growth Rate (U2OS; [9]): 0.89
Growth Rate (U2OS; [10]): 0.98
Growth Rate (HEK-293T; [3]): 0.74
Growth Rate (HEK-293T; [4]): 0.88
Growth Rate (HEK-293T; [7]): 0.9
Growth Rate (HEK-293T; [8]): 0.98
Growth Rate (HEK-293T; [9]): 0.79

NC(=O)c1cc2c(-c3ccc(C(=O)NCc4ccnc(Cl)c4)s3)cccc2s1
Growth Rate (Fibroblast; [3]): -0.81
Growth Rate (Fibroblast; [4]): -0.97
Growth Rate (Fibroblast; [5]): -0.77
Growth Rate (Fibroblast; [6]): -0.62
Growth Rate (Fibroblast; [7]): -0.53
Growth Rate (Fibroblast; [8]): -0.15
Growth Rate (Fibroblast; [9]): -0.39
Growth Rate (Fibroblast; [10]): 0.32
Growth Rate (U2OS; [2]): -0.83
Growth Rate (U2OS; [3]): -0.27
Growth Rate (U2OS; [4]): 0.04
Growth Rate (U2OS; [5]): -0.23
Growth Rate (U2OS; [6]): 0.03
Growth Rate (U2OS; [7]): 0.07
Growth Rate (U2OS; [8]): 0
Growth Rate (U2OS; [9]): -0.11
Growth Rate (U2OS; [10]): -0.08
Growth Rate (HEK-293T; [3]): -0.01
Growth Rate (HEK-293T; [4]): 0.1
Growth Rate (HEK-293T; [5]): -0.09
Growth Rate (HEK-293T; [6]): 0.13
Growth Rate (HEK-293T; [7]): -0.18
Growth Rate (HEK-293T; [8]): -0.06
Growth Rate (HEK-293T; [9]): -0.15
Growth Rate (HEK-293T; [10]): 0.01

NCCc1cn(S(=O)(=O)c2c(Cl)nc3sccn23)c2ccccc12.O=C(O)C(=O)O
Growth Rate (Fibroblast; [3]): -0.77
Growth Rate (Fibroblast; [4]): -0.79
Growth Rate (Fibroblast; [5]): -0.66
Growth Rate (Fibroblast; [6]): -0.5
Growth Rate (Fibroblast; [7]): -0.67
Growth Rate (Fibroblast; [8]): -0.42
Growth Rate (Fibroblast; [9]): -0.67
Growth Rate (Fibroblast; [10]): -0.31
Growth Rate (U2OS; [3]): -0.18
Growth Rate (U2OS; [4]): 0.34
Growth Rate (U2OS; [5]): 0.52
Growth Rate (U2OS; [6]): 0.36
Growth Rate (U2OS; [7]): 0.72
Growth Rate (U2OS; [8]): 0.45
Growth Rate (U2OS; [9]): 0.87
Growth Rate (U2OS; [10]): 0.57
Growth Rate (HEK-293T; [3]): -0.34
Growth Rate (HEK-293T; [5]): 0.22
Growth Rate (HEK-293T; [6]): 0.08
Growth Rate (HEK-293T; [7]): 0.4
Growth Rate (HEK-293T; [8]): 0.51
Growth Rate (HEK-293T; [9]): 0.57
Growth Rate (HEK-293T; [10]): 0.52

CN1CCN(c2ccc(Nc3c4ccccc4nc4ccccc34)cc2)CC1.Cl.Cl.O
Growth Rate (Fibroblast; [2]): 0.35
Growth Rate (Fibroblast; [3]): -0.84
Growth Rate (Fibroblast; [4]): 0.16
Growth Rate (Fibroblast; [5]): -0.56
Growth Rate (Fibroblast; [6]): 0.17
Growth Rate (Fibroblast; [7]): -0.39
Growth Rate (Fibroblast; [8]): 0.08
Growth Rate (Fibroblast; [9]): -0.25
Growth Rate (Fibroblast; [10]): 0.11
Growth Rate (U2OS; [2]): 0.67
Growth Rate (U2OS; [3]): 0.19
Growth Rate (U2OS; [4]): 0.29
Growth Rate (U2OS; [5]): -0.09
Growth Rate (U2OS; [6]): -0.02
Growth Rate (U2OS; [7]): -0.2
Growth Rate (U2OS; [8]): -0.17
Growth Rate (U2OS; [9]): -0.28
Growth Rate (HEK-293T; [3]): -0.94
Growth Rate (HEK-293T; [4]): -0.96
Growth Rate (HEK-293T; [5]): -0.78
Growth Rate (HEK-293T; [6]): -0.81
Growth Rate (HEK-293T; [7]): -0.62
Growth Rate (HEK-293T; [8]): -0.61
Growth Rate (HEK-293T; [9]): -0.48
Growth Rate (HEK-293T; [10]): -0.52

CC(C)n1cc(-c2ccc(N3CCN(C)CC3)c(NC(=O)c3ccc(-c4ccncc4)o3)c2)cn1
Growth Rate (Fibroblast; [2]): 0.57
Growth Rate (Fibroblast; [3]): -0.14
Growth Rate (Fibroblast; [4]): 0.39
Growth Rate (Fibroblast; [5]): 0.05
Growth Rate (Fibroblast; [6]): 0.57
Growth Rate (Fibroblast; [7]): -0.06
Growth Rate (Fibroblast; [8]): 0.81
Growth Rate (Fibroblast; [9]): 0.03
Growth Rate (Fibroblast; [10]): 0.94
Growth Rate (U2OS; [1]): 0.32
Growth Rate (U2OS; [2]): -1
Growth Rate (U2OS; [3]): -0.04
Growth Rate (U2OS; [5]): 0.36
Growth Rate (U2OS; [7]): 0.95
Growth Rate (HEK-293T; [3]): -0.29
Growth Rate (HEK-293T; [4]): -0.21
Growth Rate (HEK-293T; [5]): -0.21
Growth Rate (HEK-293T; [6]): -0.04
Growth Rate (HEK-293T; [7]): -0.16
Growth Rate (HEK-293T; [8]): 0.34
Growth Rate (HEK-293T; [9]): 0.11
Growth Rate (HEK-293T; [10]): 0.64

N=C(N)NCCC[C@@H](NC(=O)C(c1ccccc1)c1ccccc1)C(=O)NCc1ccc(CNC(N)=O)cc1.O=C(O)C(F)(F)F.O=C(O)C(F)(F)F
Growth Rate (Fibroblast; [1]): -0.19
Growth Rate (Fibroblast; [3]): 0.44
Growth Rate (Fibroblast; [4]): 0.45
Growth Rate (Fibroblast; [5]): 0.58
Growth Rate (Fibroblast; [6]): 0.67
Growth Rate (Fibroblast; [7]): 0.41
Growth Rate (Fibroblast; [9]): 0.52
Growth Rate (U2OS; [2]): 0.75
Growth Rate (U2OS; [3]): 0.1
Growth Rate (U2OS; [4]): 0.61
Growth Rate (U2OS; [5]): 0.58
Growth Rate (U2OS; [6]): 0.93
Growth Rate (U2OS; [7]): 0.59
Growth Rate (U2OS; [8]): 0.96
Growth Rate (U2OS; [9]): 0.82
Growth Rate (U2OS; [10]): 0.83
Growth Rate (HEK-293T; [3]): 1
Growth Rate (HEK-293T; [4]): 0.41
Growth Rate (HEK-293T; [5]): 0.8
Growth Rate (HEK-293T; [7]): 0.83
Growth Rate (HEK-293T; [9]): 0.98

CN(C)CCN(Cc1ccc(-c2ccc(CNCCc3ccccc3)cc2)cc1)C(=O)CCC1CCCC1.Cl.Cl
Growth Rate (Fibroblast; [3]): -1
Growth Rate (Fibroblast; [5]): -0.99
Growth Rate (Fibroblast; [7]): -0.96
Growth Rate (Fibroblast; [8]): -0.99
Growth Rate (Fibroblast; [9]): -0.93
Growth Rate (Fibroblast; [10]): -0.98
Growth Rate (U2OS; [3]): -1
Growth Rate (U2OS; [4]): -0.96
Growth Rate (U2OS; [5]): -0.99
Growth Rate (U2OS; [6]): -0.81
Growth Rate (U2OS; [7]): -0.92
Growth Rate (U2OS; [8]): -0.64
Growth Rate (U2OS; [9]): -0.86
Growth Rate (U2OS; [10]): -0.58
Growth Rate (HEK-293T; [3]): -0.93
Growth Rate (HEK-293T; [4]): -0.92
Growth Rate (HEK-293T; [5]): -0.74
Growth Rate (HEK-293T; [6]): -0.78
Growth Rate (HEK-293T; [7]): -0.55
Growth Rate (HEK-293T; [8]): -0.67
Growth Rate (HEK-293T; [9]): -0.46
Growth Rate (HEK-293T; [10]): -0.59
